Experimental data taken from the supplement of paper PMC10702517.
± gives the standard deviation.

What was measured:
[1] = chemical recovery into PDMS from spiked human plasma; higher = better extraction; conditions: pooled human plasma, extraction method: PES with PDMS
[2] = chemical recovery by SPE of plasma after PDMS sampling; higher = better extraction; conditions: pooled human plasma, extraction method: HLB SPE of plasma after PES
[3] = chemical recovery from spiked human plasma; higher = better extraction; conditions: pooled human plasma
[4] = extraction method: PES+SPE (3 d PDMS equilibration then HLB SPE)
[5] = extraction method: SPE only (HLB 96-well)
[6] = extraction method: SPE only (HLB 96-well), PES comparison experiment
[7] = extraction method: solvent precipitation (ACN + hexane)
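Wherever chemical recovery by SPE of plasma after PDMS sampling is given: over 400 spiked chemicals quantified by LC-HRMS or GC-HRMS via internal standard calibration, recovery relative to spike mix added to unspiked plasma extract to correct matrix effects.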

| Structure (SMILES) | chemical recovery into PDMS ([1]; equilibration time (d): 1) [%] | chemical recovery into PDMS ([1]; equilibration time (d): 3) [%] | chemical recovery into PDMS ([1]; equilibration time (d): 6) [%] | chemical recovery by SPE of plasma ([2]; equilibration time (d): 1) [%] | chemical recovery by SPE of plasma ([2]; equilibration time (d): 3) [%] | chemical recovery by SPE of plasma ([2]; equilibration time (d): 6) [%] | chemical recovery [3, 4] [%] | chemical recovery [3, 5] [%] | chemical recovery [3, 6] [%] | chemical recovery [3, 7] [%] |
| --- | --- | --- | --- | --- | --- | --- | --- | --- | --- | --- |
| Nc1ccc2c(n1)[nH]c1ccccc12 [2-Amino-9H-pyrido[2,3-b]indole (AalphaC)] | 3 ± 0.11 | 3.49 ± 1.2 | 5.65 ± 2.5 | 19.66 ± 0.18 | 14.4 ± 1.5 | 9.97 ± 0.52 | 17 ± 2.6 | 28.5 ± 2.1 | 45.3 ± 7.1 | 70.8 ± 5.4 |
| CC(C)(C)C(=O)C(Oc1ccc(Cl)cc1)n1ccnc1 (stereo unspecified) [Climbazole] | 41.2 ± 2.2 | 40 ± 1 | 39.7 ± 1.4 | 1.65 ± 0.14 | 1.11 ± 0.35 | 0.487 ± 0.043 | 66.5 ± 6.8 | 37.7 ± 2.8 | 46.8 ± 4.8 | 75.1 ± 3.8 |
| CCNc1nc(NCC)nc(SC)n1 [Simetryn] | 21.2 ± 8.1 | 25.4 ± 8.6 | 28.9 ± 5.6 | 12.9 ± 2.2 | 5.73 ± 0.83 | 3.34 ± 0.47 | – | 41.6 ± 3.2 | 46.7 ± 4.3 | 70.9 ± 3.6 |
| C[C@H]1C[C@H]2[C@@H]3CCC4=CC(=O)C=C[C@]4(C)[C@@]3(F)[C@@H](O)C[C@]2(C)[C@@]1(O)C(=O)CCl [Clobetasol] | 1.52 ± 0.65 | 4.53 ± 1.1 | 4.86 ± 0.99 | – | 53.2 ± 3.3 | – | – | – | 49 ± 7.5 | – |
| CC(=O)CCCCn1c(=O)c2c(ncn2C)n(C)c1=O [Pentoxifylline] | 17.2 ± 0.99 | 24.5 ± 3.9 | 27 ± 2.1 | 37.9 ± 5.9 | 33.6 ± 3.5 | 25.1 ± 4.3 | 57.2 ± 6.1 | 46.9 ± 3.7 | 52.1 ± 4.9 | 76.5 ± 3.2 |
| C#C[C@]1(O)C=C[C@H]2[C@@H]3CCC4=CC(=O)CC[C@@H]4[C@H]3CC[C@@]21CC [Gestoden] | 34.1 ± 1.7 | 43 ± 2.3 | 40.9 ± 4.1 | 22.4 ± 3 | 17.6 ± 1 | 11.7 ± 1.3 | – | – | 47 ± 7.4 | – |
| Nc1ccc(/N=N/c2ccccc2)cc1 [Aniline Yellow] | 12.3 ± 4.1 | 10.4 ± 4.8 | 11.3 ± 3 | 6.65 ± 1.6 | 7.55 ± 0.93 | 5.19 ± 0.91 | – | – | 28.9 ± 4.3 | – |
| CCC(C)OC(=O)N1CCCCC1CCO (stereo unspecified) [Icaridin] | 27.3 ± 1.6 | 31.3 ± 3.8 | 35.5 ± 13 | 2.46 ± 0.24 | 2.67 ± 0.36 | 1.58 ± 0.1 | – | 45 ± 5.5 | 43.2 ± 8.4 | – |
| CSc1nnc(C(C)(C)C)c(=O)n1N [Metribuzin] | 25 ± 2.2 | 25.2 ± 1.9 | 29.4 ± 1.2 | 10.9 ± 1.3 | 15.3 ± 1.4 | 10.4 ± 1.8 | 49.7 ± 7.4 | 49 ± 2.9 | 54.2 ± 7.9 | 71.8 ± 2.9 |
